Results from ChEMBL document CHEMBL1154198, “Chemical genetics of Plasmodium falciparum” (Nature, 2010).

How the values were obtained:
Plasmodium falciparum [1] = assay: ST_JUDE: Plasmodium falciparum 3D7 EC50 (uM) as measured by SYBR green dye; type: functional, organism-based
Plasmodium falciparum [2] = assay: ST_JUDE: Plasmodium falciparum K1 EC50 (uM) as measured by SYBR green dye; type: functional, organism-based

SMILES | EC50 (Plasmodium falciparum [1]) | EC50 (Plasmodium falciparum [2])
CCOCCn1/c(=N/C(=O)COc2ccc(Cl)cc2)sc2cc(OCC)ccc21 | > 15 µM | > 15 µM
Cc1ccc(S(=O)(=O)Nc2ccc(Nc3nc(C)cc(N4CCCC4)n3)cc2)cc1 | 0.919 µM | 7.18 µM
N=C(N/N=C\c1ccc(F)cc1)N/N=C\c1ccc(F)cc1 | 0.753 µM | 4.74 µM
CCc1ccc(S(=O)(=O)Nc2ccc(Nc3nc(C)cc(N4CCCC4)n3)cc2)cc1 | 1.42 µM | > 15 µM
COc1ccc(CN2CCCC(N3CCN(c4ccc(F)cc4)CC3)C2)c(O)c1 (configuration not stated) | 1.61 µM | 1.04 µM
Cc1ccc(Nc2c(-c3ccccn3)nc3ccc(C)cn23)cc1 | 3.93 µM | > 15 µM
CCCN1CCN(CCCNC(=O)c2ccc3c(c2)sc2nc(-c4cccc(OC)c4)cn23)CC1 | 1.21 µM | 3.18 µM
CCOC(=O)C1=C(C)N=c2s/c(=C\c3ccc(O)cc3)c(=O)n2C1c1ccc(OC)c(OC)c1 (configuration not stated) | > 15 µM | 1.4 µM
CCOC(=O)c1ccc2nc(C)cc(Nc3ccc(C)cc3C)c2c1 | > 15 µM | > 15 µM
Cc1c(C)n(CC(O)CNC2CCCCC2C)c2ccccc12 (configuration not stated) | 0.527 µM | 0.35 µM
Cc1c(Cl)ccc2c(C(=O)Nc3ccc(S(=O)(=O)N4CCOCC4)cc3)cc(-c3cccnc3)nc12 | 1.22 µM | > 15 µM
O=C1CC(c2ccc(Cl)cc2Cl)C2=C(CC(c3ccc(F)cc3)CC2=O)N1 (configuration not stated) | > 15 µM | > 15 µM
O=C1C(Nc2ccc(I)cc2)=C(N2CCOCC2)C(=O)c2ccccc21 | 0.256 µM | 0.181 µM
COc1ccc(Nc2cc(C)nc(Nc3ccc(NS(=O)(=O)c4ccc(Cl)cc4)cc3)n2)cc1 | 0.564 µM | > 15 µM
Cc1cccc(NC(c2cccc(Cl)c2)c2ccc3cccnc3c2O)n1 (configuration not stated) | 3.47 µM | 3.34 µM
CCc1cccc(NC(=O)c2cc3c(-c4ccc(OC)c(OC)c4)nn(C)c3s2)c1 | > 15 µM | > 15 µM
CO/C(O)=C1\C(C)=NC2=C(C(=O)CC(c3ccc(OC)c(OC)c3)C2)C1c1cccc(C)c1 (configuration not stated) | 3.69 µM | 3.86 µM
Cc1cccc(C(=O)ONC(=N)Cc2cccc3ccccc23)c1 | 4.7 µM | 2.63 µM
COc1ccc(OC)c(NC(=O)C2c3ccccc3C(=O)N(C)C2c2cccs2)c1 (configuration not stated) | > 15 µM | 4.28 µM
CCc1ccc(N(CC)C(=O)c2cc3cc4ccc(OC)cc4nc3o2)cc1 | > 15 µM | > 15 µM
CC(=O)NC(c1ccc(C(C)C)cc1)c1ccc2cccnc2c1O (configuration not stated) | 6.6 µM | 6.76 µM
CN1CCN(c2nc(Nc3cccc(Cl)c3)c3cnn(-c4ccccc4)c3n2)CC1 | 3.88 µM | 4.58 µM

SMILES | EC50 (Plasmodium falciparum [1]) | EC50 (Plasmodium falciparum [2])
COc1ccc2sc(N(Cc3cccnc3)C(=O)c3ccc(F)cc3)nc2c1 | > 15 µM | 1.49 µM
Cc1cccc(C2Sc3ccccc3N=C3C2=C(O)c2ccccc23)c1 (configuration not stated) | 1.89 µM | 1.77 µM
CCCOC(=O)c1cccc(NC(=O)C23CCC(C)(C(=O)O2)C3(C)C)c1 (configuration not stated) | > 15 µM | > 15 µM
COc1cc(/C=C2/C(=O)NC(=O)N(c3ccc(Cl)cc3)C2=O)cc(Br)c1OC | > 15 µM | > 15 µM
CCc1ccc(CN2CCC(n3nccc3NC(=O)Nc3ccccc3C)CC2)cc1 | 6.75 µM | > 15 µM
O=C(C1CCCO1)N1N=C(c2c(O)nc3ccc(Cl)cc3c2-c2ccccc2)CC1c1ccco1 (configuration not stated) | > 15 µM | > 15 µM
CCCCc1ccc(NC(=S)NN2CCN(C)CC2)cc1 | > 15 µM | > 15 µM
O=C(O)c1ccc(S(=O)(=O)NC2=C/C(=N\S(=O)(=O)c3ccccc3)C(=O)c3ccccc32)cc1 | > 15 µM | > 15 µM
Cc1ccc(O)c(-n2cc3c(c2-c2cccc([N+](=O)[O-])c2)c(=O)n(C)c(=O)n3C)c1 | 4.89 µM | 4.79 µM
CC(C)Nc1c2ccccc2nc2ccccc12 | 2.54 µM | 4.07 µM
COc1ccc(OC)c(/C=N/Nc2nc3ccccc3[nH]2)c1 | 3.64 µM | > 15 µM
Oc1c(C(c2ccc(Cl)cc2)N2CCOCC2)ccc2cccnc12 (configuration not stated) | 2.19 µM | 2.97 µM
O=C1CC(c2ccc(O)cc2)C2=C(CC(c3ccccc3Cl)CC2=O)N1 (configuration not stated) | 2.43 µM | 1.41 µM
CCC(=O)NC(c1ccc(N(C)C)cc1)c1ccc2cccnc2c1O (configuration not stated) | 4.07 µM | 4.44 µM
CCOC(=O)c1cccc(NC(=O)CC2C(=O)N(c3ccc(F)cc3)C(=O)N2C2CCCC2)c1 (configuration not stated) | 0.344 µM | 0.984 µM
OCCN1CCN(c2nc(Nc3ccc(F)cc3)c3cnn(-c4ccccc4)c3n2)CC1 | 1.21 µM | 1.38 µM
CC(=O)Nc1ccc(S(=O)(=O)N2CCN(c3ccc(Nc4ccccc4)nn3)CC2)cc1 | 7.32 µM | > 15 µM
CCOc1ccc(/C=C(/C#N)c2nc3ccccc3[nH]2)cc1OC | 3.39 µM | 4.68 µM
COc1ccc(/C=C(\C#N)c2nn(CCO)c(N)c2C#N)cc1 | > 15 µM | > 15 µM
Cc1c(Cl)c(C(F)(F)F)nn1CC(=O)Nc1cccc(C(F)(F)F)c1 | > 15 µM | 4.43 µM
COc1ccccc1Cn1ccnc1SCC(=O)Nc1cc(C)ccc1C | 1.97 µM | > 15 µM
Oc1ccc(Br)c2c1NC(c1ccc(Cl)cc1)C1CC=CC21 (configuration not stated) | 3.89 µM | 1.57 µM

SMILES | EC50 (Plasmodium falciparum [1]) | EC50 (Plasmodium falciparum [2])
CCOC(=O)C(=O)Oc1cc2oc(C(=O)OCC)c(-c3nc4ccccc4s3)c(=O)c2cc1CC | > 15 µM | > 15 µM
O=[N+]([O-])c1ccccc1C(Nc1ccccn1)c1cc(Cl)c2cccnc2c1O (configuration not stated) | 8.67 µM | > 15 µM
Cc1ccc(-n2cc(CN3CCCC(C(N)=O)C3)c(-c3cccc(C)c3)n2)cc1 (configuration not stated) | 5.24 µM | 4.22 µM
CN(C)c1ccc(Nc2c3ccccc3nc3ccccc23)cc1 | 1.46 µM | 1.11 µM
COc1[nH]cnc2c3cc(C)ccc3nc1-2 | > 15 µM | > 15 µM
O=S(=O)(NCC(c1cccnc1)N1CCN(c2ccc(F)cc2)CC1)c1ccc(Cl)cc1 (configuration not stated) | > 15 µM | > 15 µM
CN(C)CCNC(=O)c1ccc2c(c1)sc1nc(-c3ccc(F)cc3)cn12 | 3.19 µM | 3.54 µM
CCN(CCN(C)C)C(=O)c1csc(-c2ccc(OC(F)(F)F)cc2)n1 | 4.51 µM | > 15 µM
CCOC(=O)c1ccc2nc(C)c(CN3CCN(C(c4ccccc4)c4ccccc4)CC3)c(O)c2c1 | > 15 µM | > 15 µM
CC(=O)NCC(=O)NC1CC(C)(C)Cc2c1cnn2-c1ccccc1 (configuration not stated) | > 15 µM | > 15 µM
Nc1nc(Nc2ccc(Cl)c(Cl)c2)nc2ccccc12 | 2.22 µM | > 15 µM
O=C(CSc1nc(-c2ccccc2Cl)ns1)Nc1cccc(Cl)c1 | 1.39 µM | 1.7 µM
CCOC(=O)c1c(CNCCN(CC)CC)n(C)c2cc(Br)c(O)cc12 | 2.89 µM | 4.87 µM
Fc1ccc(Nc2nc(NCCN3CCOCC3)nc3c2cnn3-c2ccccc2)cc1 | > 15 µM | 6.75 µM
O=C(c1cccc(F)c1)N(Cc1cccnc1)c1nc2ccc(F)cc2s1 | > 15 µM | 4.23 µM
COCC(C)Oc1cccc(CN(Cc2ccncc2)C(=O)/C=C/c2cccc(F)c2)c1 (configuration not stated) | 4.14 µM | > 15 µM
CCCCCn1c(=N)n(CC(O)COc2cccc(C)c2)c2ccccc21 (configuration not stated) | 2.65 µM | 1.36 µM
CN1CCN(c2nc(Nc3ccc(SC(F)F)cc3)c3cnn(-c4ccccc4)c3n2)CC1 | 1.31 µM | 3.72 µM
CCCOc1ccc(C(NC(=O)CCl)NC(=O)CCl)cc1OC | 3.99 µM | 3.74 µM
Cc1c(C=O)c2ccccc2n1CC(=O)Nc1ccc(Br)c(Cl)c1 | 0.702 µM | 0.891 µM
O=C(N1CCCC1)C12CC3CC(CC(C3)C1)C2 | 8.15 µM | 7.65 µM
CCCCN(CCCC)C(=O)Cn1ccc(=N)c2ccccc21 | > 15 µM | > 15 µM

SMILES | EC50 (Plasmodium falciparum [1]) | EC50 (Plasmodium falciparum [2])
C#CCN(CC=C)Cc1nc(-c2cc(OC)ccc2OC)oc1C | > 15 µM | > 15 µM
O=[N+]([O-])c1ccc(C2N(Cc3ccccc3)CCN2Cc2ccccc2)cc1 | > 15 µM | > 15 µM
Cc1cccc(NC(=O)c2cc3ccccc3cc2O)c1 | 1.15 µM | 0.602 µM
CC1CCN(C(=O)c2cc(COc3ccc(F)cc3F)on2)CC1 | > 15 µM | > 15 µM
COc1cccc(-c2nc3cc(NC(=O)c4cccc(Cl)c4Cl)ccc3o2)c1 | > 15 µM | > 15 µM
CCCCCCCCn1ccc(=N)cc1 | 2.18 µM | 1.41 µM
COc1ccc(Cl)c2sc(N(Cc3cccnc3)C(=O)c3ccc(C(C)=O)cc3)nc12 | 4.06 µM | 3.86 µM
COc1ccccc1CCN1C(=O)CCC1CCNCCOc1ccccc1 (configuration not stated) | > 15 µM | > 15 µM
CCOc1cc(Br)c(C2C(C#N)=C(N)Oc3cc(O)ccc32)cc1OCC (configuration not stated) | 3.8 µM | 1.52 µM
Cc1ccc(NC(=O)CSc2nncc(O)n2)cc1 | 4.88 µM | 0.924 µM
COc1ccc(C(=O)C2CCCN(Cc3ccc(OCCO)cc3)C2)cc1OC (configuration not stated) | > 15 µM | > 15 µM
CCOc1ccc(NC(=O)c2sc3nc4n(c(=O)c3c2C)CCC4)cc1 | > 15 µM | > 15 µM
COc1cc(C(=O)NCC(C)Oc2cccc(CN(C)Cc3cscn3)c2)cc(OC)c1OC (configuration not stated) | > 15 µM | > 15 µM
O=C1CC(C(=O)N2CCC(c3nc(-c4cccnc4)ncc3-c3ccccc3)CC2)c2ccccc21 (configuration not stated) | 2.73 µM | 4.09 µM
CCCN1CCN(CCCNC(=O)c2ccc3c(c2)sc2nc(-c4ccc(OC)cc4)cn23)CC1 | 0.839 µM | > 15 µM
COc1ccc(C2N(C)c3ccccc3N2C)cc1 | > 15 µM | > 15 µM
COc1ccc(C(=O)CSc2nnc(Cc3cc(O)nc(O)n3)n2-c2ccc(Cl)cc2)cc1 | > 15 µM | > 15 µM
COc1nc(-c2ccncc2)nc2ccccc12 | > 15 µM | > 15 µM
CN1CCN(c2ccc(-c3cccc(NC(=O)c4cccc(F)c4)c3)nn2)CC1 | > 15 µM | > 15 µM
CCCCN(C)S(=O)(=O)c1ccc(C(=O)N(Cc2ccccn2)c2nc3ccccc3s2)cc1 | > 15 µM | > 15 µM
